{"source": "patent US12077503B2", "about": "“Substituted cyclic amides and their use as herbicides” (FMC CORPORATION, priority 2015, dated 2024)", "assay_type_in_all_cases": "in vivo", "key": {"[1]": {"test_system": "redroot pigweed (Amaranthus retroflexus)", "assay": "Test G Pre-Emergence Protocol", "settings": "Amaranthus retroflexus, pre-emergence, 312 h, evaluated after 13 days", "outline": "(§1)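 One day after sowing, pots are treated with a spray of test compound formulated in acetone/water 50:50 plus 0.5% Tween 20, giving 15.625, 62.5 or 250 g/ha. Evaluation on a 0–100 damage scale follows 13 days of glasshouse growth.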"}, "[2]": {"test_system": "corn (Zea mays)", "assay": "Test G Pre-Emergence Protocol", "settings": "Zea mays, pre-emergence, 312 h, evaluated after 13 days", "outline": "as §1"}, "[3]": {"test_system": "barnyardgrass (Echinochloa crus-galli)", "assay": "Test G Pre-Emergence Protocol", "settings": "Echinochloa crus-galli, pre-emergence, 312 h, evaluated after 13 days", "outline": "as §1"}, "[4]": {"test_system": "velvetleaf (Abutilon theophrasti)", "assay": "Test G Pre-Emergence Protocol", "settings": "Abutilon theophrasti, pre-emergence, 312 h, evaluated after 13 days", "outline": "as §1"}, "[5]": {"test_system": "giant foxtail (Setaria faberi)", "assay": "Test G Pre-Emergence Protocol", "settings": "Setaria faberi, pre-emergence, 312 h, evaluated after 13 days", "outline": "as §1"}, "[6]": {"test_system": "ivy-leaved morning glory (Ipomoea hederacea)", "assay": "Test G Pre-Emergence Protocol", "settings": "Ipomoea, pre-emergence, 312 h, evaluated after 13 days", "outline": "as §1"}, "[7]": {"test_system": "redroot pigweed (Amaranthus retroflexus)", "assay": "Test G Post-Emergence Protocol", "settings": "Amaranthus retroflexus, post-emergence, 312 h", "outline": "(§2)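 Pot-grown seedlings, 8 days old, raised in a glasshouse at 24/16 °C day/night with 14 h light and 65% humidity, were sprayed post-emergence with test compound in acetone/water (50:50) plus 0.5% Tween 20 at 15.625, 62.5 or 250 g/ha. Damage was scored visually 13 days later on a 0–100 scale (100 = total damage).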"}, "[8]": {"test_system": "corn (Zea mays)", "assay": "Test G Post-Emergence Protocol", "settings": "Zea mays, post-emergence, 312 h", "outline": "as §2"}, "[9]": {"test_system": "barnyardgrass (Echinochloa crus-galli)", "assay": "Test G Post-Emergence Protocol", "settings": "Echinochloa crus-galli, post-emergence, 312 h", "outline": "as §2"}, "[10]": {"test_system": "velvetleaf (Abutilon theophrasti)", "assay": "Test G Post-Emergence Protocol", "settings": "Abutilon theophrasti, post-emergence, 312 h", "outline": "as §2"}, "[11]": {"test_system": "giant foxtail (Setaria faberi)", "assay": "Test G Post-Emergence Protocol", "settings": "Setaria faberi, post-emergence, 312 h", "outline": "as §2"}, "[12]": {"test_system": "ivy-leaved morning glory (Ipomoea hederacea)", "assay": "Test G Post-Emergence Protocol", "settings": "Ipomoea, post-emergence, 312 h", "outline": "as §2"}}}
{"compound": "CN1C[C@@H](c2ccc(C(F)(F)F)nc2)[C@H](C(=O)Nc2cccc(F)n2)C1=O", "note": "(racemic) [Compound 1491]", "values": [{"measurement": "pest or weed control at 15.625 g/ha", "setting": "[1]; 15.625 g ai/ha, read-out: Pigweed, Redroot damage rating (100=total damage to plant; 0=no damage to plant)", "result": 0, "unit": "%"}, {"measurement": "pest or weed control at 62.5 g/ha", "setting": "[1]; 62.5 g ai/ha, 100=total damage to plant, 0=no damage to plant, read-out: plant damage rating, Pigweed, Redroot", "result": 0, "unit": "%"}, {"measurement": "pest or weed control at 250 g/ha", "setting": "[1]; 250 g ai/ha, read-out: Pigweed, Redroot damage rating (100=total damage to plant; 0=no damage to plant)", "result": 0, "unit": "%"}, {"measurement": "plant injury at 15.625 g/ha", "setting": "[2]; 15.625 g ai/ha, read-out: Corn damage rating (100=total damage to plant; 0=no damage to plant)", "result": 0, "unit": "%"}, {"measurement": "plant injury at 62.5 g/ha", "setting": "[2]; 62.5 g ai/ha, 100=total damage to plant, 0=no damage to plant, read-out: plant damage rating, Corn", "result": 0, "unit": "%"}, {"measurement": "plant injury at 250 g/ha", "setting": "[2]; 250 g ai/ha, read-out: Corn damage rating (100=total damage to plant; 0=no damage to plant)", "result": 0, "unit": "%"}, {"measurement": "pest or weed control at 15.625 g/ha", "setting": "[3]; 15.625 g ai/ha, read-out: Barnyard grass damage rating (100=total damage to plant; 0=no damage to plant)", "result": 0, "unit": "%"}, {"measurement": "pest or weed control at 62.5 g/ha", "setting": "[3]; 62.5 g ai/ha, 100=total damage to plant, 0=no damage to plant, read-out: plant damage rating, Barnyardgrass", "result": 20, "unit": "%"}, {"measurement": "pest or weed control at 250 g/ha", "setting": "[3]; 250 g ai/ha, read-out: Barnyardgrass damage rating (100=total damage to plant; 0=no damage to plant)", "result": 90, "unit": "%"}, {"measurement": "pest or weed control at 15.625 g/ha", "setting": "[4]; 15.625 g ai/ha, read-out: Velvetleaf damage rating (100=total damage to plant; 0=no damage to plant)", "result": 0, "unit": "%"}, {"measurement": "pest or weed control at 62.5 g/ha", "setting": "[4]; 62.5 g ai/ha, 100=total damage to plant, 0=no damage to plant, read-out: plant damage rating, Velvetleaf", "result": 0, "unit": "%"}, {"measurement": "pest or weed control at 250 g/ha", "setting": "[4]; 250 g ai/ha, read-out: Velvetleaf damage rating (100=total damage to plant; 0=no damage to plant)", "result": 0, "unit": "%"}, {"measurement": "pest or weed control at 15.625 g/ha", "setting": "[5]; 15.625 g ai/ha, read-out: Foxtail, Giant damage rating (100=total damage to plant; 0=no damage to plant)", "result": 0, "unit": "%"}, {"measurement": "pest or weed control at 62.5 g/ha", "setting": "[5]; 62.5 g ai/ha, 100=total damage to plant, 0=no damage to plant, read-out: plant damage rating, Foxtail, Giant", "result": 50, "unit": "%"}, {"measurement": "pest or weed control at 250 g/ha", "setting": "[5]; 250 g ai/ha, read-out: Foxtail, Giant damage rating (100=total damage to plant; 0=no damage to plant)", "result": 80, "unit": "%"}, {"measurement": "pest or weed control at 15.625 g/ha", "setting": "[6]; 15.625 g ai/ha, read-out: Morning-glory, Ivy-leaved damage rating (100=total damage to plant; 0=no damage to plant)", "result": 0, "unit": "%"}, {"measurement": "pest or weed control at 62.5 g/ha", "setting": "[6]; 62.5 g ai/ha, 100=total damage to plant, 0=no damage to plant, read-out: plant damage rating, Morningglory, Ivy-leaved", "result": 0, "unit": "%"}, {"measurement": "pest or weed control at 250 g/ha", "setting": "[6]; 250 g ai/ha, read-out: Morningglory, Ivy-leaved damage rating (100=total damage to plant; 0=no damage to plant)", "result": 0, "unit": "%"}, {"measurement": "pest or weed control at 15.625 g/ha", "setting": "[7]; 15.625 g ai/ha, evaluated after 13 days (100=total damage to plant; 0=no damage to plant), read-out: Pigweed, Redroot damage rating", "result": 0, "unit": "%"}, {"measurement": "pest or weed control at 62.5 g/ha", "setting": "[7]; 62.5 g ai/ha, evaluated after 13 days, read-out: Pigweed, Redroot damage rating (100=total damage to plant; 0=no damage to plant)", "result": 0, "unit": "%"}, {"measurement": "pest or weed control at 250 g/ha", "setting": "[7]; 250 g ai/ha, evaluated after 13 days, read-out: damage to plant, Pigweed, Redroot (100=total damage to plant; 0=no damage to plant)", "result": 0, "unit": "%"}, {"measurement": "plant injury at 15.625 g/ha", "setting": "[8]; 15.625 g ai/ha, evaluated after 13 days (100=total damage to plant; 0=no damage to plant), read-out: Corn damage rating", "result": 0, "unit": "%"}, {"measurement": "plant injury at 62.5 g/ha", "setting": "[8]; 62.5 g ai/ha, evaluated after 13 days, read-out: Corn damage rating (100=total damage to plant; 0=no damage to plant)", "result": 0, "unit": "%"}, {"measurement": "plant injury at 250 g/ha", "setting": "[8]; 250 g ai/ha, evaluated after 13 days, read-out: damage to plant, Corn (100=total damage to plant; 0=no damage to plant)", "result": 0, "unit": "%"}, {"measurement": "pest or weed control at 15.625 g/ha", "setting": "[9]; 15.625 g ai/ha, evaluated after 13 days (100=total damage to plant; 0=no damage to plant), read-out: Barnyardgrass damage rating", "result": 0, "unit": "%"}, {"measurement": "pest or weed control at 62.5 g/ha", "setting": "[9]; 62.5 g ai/ha, evaluated after 13 days, read-out: Barnyardgrass damage rating (100=total damage to plant; 0=no damage to plant)", "result": 20, "unit": "%"}, {"measurement": "pest or weed control at 250 g/ha", "setting": "[9]; 250 g ai/ha, evaluated after 13 days, read-out: damage to plant, Barnyardgrass (100=total damage to plant; 0=no damage to plant)", "result": 60, "unit": "%"}, {"measurement": "pest or weed control at 15.625 g/ha", "setting": "[10]; 15.625 g ai/ha, evaluated after 13 days (100=total damage to plant; 0=no damage to plant), read-out: Velvetleaf damage rating", "result": 0, "unit": "%"}, {"measurement": "pest or weed control at 62.5 g/ha", "setting": "[10]; 62.5 g ai/ha, evaluated after 13 days, read-out: Velvetleaf damage rating (100=total damage to plant; 0=no damage to plant)", "result": 0, "unit": "%"}, {"measurement": "pest or weed control at 250 g/ha", "setting": "[10]; 250 g ai/ha, evaluated after 13 days, read-out: damage to plant, Velvetleaf (100=total damage to plant; 0=no damage to plant)", "result": 0, "unit": "%"}, {"measurement": "pest or weed control at 15.625 g/ha", "setting": "[11]; 15.625 g ai/ha, evaluated after 13 days (100=total damage to plant; 0=no damage to plant), read-out: Foxtail, Giant damage rating", "result": 0, "unit": "%"}, {"measurement": "pest or weed control at 62.5 g/ha", "setting": "[11]; 62.5 g ai/ha, evaluated after 13 days, read-out: Foxtail, Giant damage rating (100=total damage to plant; 0=no damage to plant)", "result": 20, "unit": "%"}, {"measurement": "pest or weed control at 250 g/ha", "setting": "[11]; 250 g ai/ha, evaluated after 13 days, read-out: damage to plant, Foxtail, Giant (100=total damage to plant; 0=no damage to plant)", "result": 60, "unit": "%"}, {"measurement": "pest or weed control at 15.625 g/ha", "setting": "[12]; 15.625 g ai/ha, evaluated after 13 days (100=total damage to plant; 0=no damage to plant), read-out: Morningglory, Ivy-leaved damage rating", "result": 0, "unit": "%"}, {"measurement": "pest or weed control at 62.5 g/ha", "setting": "[12]; 62.5 g ai/ha, evaluated after 13 days, read-out: Morningglory, Ivy-leaved damage rating (100=total damage to plant; 0=no damage to plant)", "result": 0, "unit": "%"}, {"measurement": "pest or weed control at 250 g/ha", "setting": "[12]; 250 g ai/ha, evaluated after 13 days, read-out: damage to plant, Morningglory, Ivy-leaved (100=total damage to plant; 0=no damage to plant)", "result": 10, "unit": "%"}]}
